Assay results published in PubChem BioAssay AID463074 (Broad Institute, 2010).
The source made the active and inactive calls.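 Rule for the calls: active = AC50 no more than tenfold above the top dose tested, or full inhibition at every dose with a flat fit (cut at about 19 µM in these data); inconclusive = flat curve fit with inhibition between 30% and 70%, or poor fit; inactive = AC50 more than tenfold above the top dose tested.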

Test system: HMLE_sh_eGFP viability, CellTiter-Glo luminescence, 72 h
Experiment: cytotoxicity in HMLE control line with eGFP shRNA, dose response, counter-screen for HMLE_sh_ECad selective toxicity project, cell-based, HMLE_sh_eGFP, luminescence (AID 463074);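 note: counterscreen control line to flag general toxicity for the HMLE_sh_ECad screen; potency for loss of viability as luminescence drops below DMSO wells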

SMILES | AC50
CC(=O)c1ccc(N2CCC(c3cc(-c4ccc(Cl)cc4Cl)n[nH]3)CC2)c([N+](=O)[O-])c1 | 4.17 µM
N#C/C(=C\c1c(F)cccc1Cl)c1nn(-c2ccccc2)c(-n2cccc2)c1C#N | 1.71 µM
COCCNC(=O)CN(C(=O)CCC(=O)Nc1ccccn1)c1ccc(C)cc1 | > 19.5 µM (inactive)
Cc1ccc([N+](=O)[O-])cc1N(CC(=O)Nc1ccc(S(=O)(=O)Nc2cccc(C(F)(F)F)c2)cc1)S(C)(=O)=O | 4.67 µM
Cc1ccc(-n2nnnc2Sc2ccc(S(=O)(=O)NCCN(C)C)cc2[N+](=O)[O-])cc1 | 6.72 µM
COc1ccc(-c2sc3ccccc3c2C#Cc2cncn2C)cc1 | 4.83 µM
CCCCCCOc1ccc(OC(=O)c2ccncc2)cc1 | 5.43 µM
COC(=O)c1cc(=O)n(Cc2cccs2)c(=Nc2ccccc2)s1 | 4.57 µM
CCN1CCN(Cc2ccc(OCc3ccccc3)cc2)CC1 | 4.38 µM
O=c1cc(N2CCCCC2)c(-c2ccccc2)nn1Cc1ccccc1 | 12 µM
COc1ccc(CCN2C(=S)N(C)C(=O)C2CC(=O)Nc2ccc(OC)cc2)cc1 (stereo not drawn) | 17.8 µM
Cc1cc(N)n(-c2ccc(S(N)(=O)=O)cc2[N+](=O)[O-])n1 | > 19.5 µM (inactive)
C=CCC[C@@H](Cc1ccc(F)cc1)C(=O)OC[C@@H](Cc1c[nH]c2ccccc12)NC(=O)[C@@H](CC=C)CC(=O)N(CCO)Cc1ccccc1 | 7.13 µM
CC(C)c1ccc(NC(=O)c2snc3ccc(Cl)cc23)cc1 | 3.62 µM
COc1cc(CNC(C)c2ccccc2)cc(Br)c1OCc1ccccc1 (stereo not drawn) | 6.75 µM
CC(=O)N(C)c1ccc(OCC(O)Cn2c3ccc(Cl)cc3c3cc(Cl)ccc32)cc1 (stereo not drawn) | 1.65 µM
CN(C)c1ccc(-c2cc([C@H]3[C@@H]4C=CCC[C@@]4(C)C(=O)N3Cc3ccccc3)ccc2F)cc1 | 6.46 µM
CCN1CCN(C(=O)c2ccc(CSc3ccc(C)cc3)cc2)CC1 | 0.22 µM
COCCN(C(=O)C(C)C)c1nnc(-c2ccc(C(C)(C)C)cc2)s1 | 3.06 µM
Cc1cc(C)cc(NS(=O)(=O)c2ccc3[nH]cc(C(=O)NCc4ccco4)c(=O)c3c2)c1 | 1.5 µM
Nc1ccc(N=Nc2ccccc2)c2ccccc12 | 12.6 µM
COc1ccc(Sc2ccc(-c3nc4cnccn4c3NC3CCCCC3)cc2OC)cc1 | 3.57 µM
CCc1ccc2oc(C(=O)NCC(c3ccc(OC)cc3)N3CCCCC3)c(C)c2c1 (stereo not drawn) | 6.09 µM
N#CCSc1nc2c(c(=O)n1Cc1ccco1)C1(CCCC1)Cc1ccccc1-2 | 0.468 µM
Cc1cc(N2CCCCC2)n2ncc(-c3ccc(Cl)cc3)c2n1 | 6.51 µM
CCOC(=O)c1nn(-c2ccc(F)cc2)c(-c2ccccc2)c1C(=O)c1ccccc1 | 11.8 µM

SMILES | AC50
Clc1ccc(-c2nnc(-c3ccccc3)c(-c3ccccc3)n2)cc1 | 3.69 µM
c1cc(SC2CCCCC2)cc(-c2nc3cnccn3c2NC2CCCCC2)c1 | 1.78 µM
Cc1cc(C(C)(C)C)c(OC(=O)[C@@H]2OC(c3ccccc3)=C[C@H]2c2ccccc2)c(C(C)(C)C)c1 | 7.77 µM
CCCOc1ccc2c(c1)C(=NN=C(N)N)c1cc(OCCC)ccc1-2 | 3.7 µM
COc1ccc(-c2ccc(C)cc2)cc1[C@H]1[C@@H]2C=CCC[C@@]2(C)C(=O)N1Cc1ccccc1 | 3.87 µM
CC[C@H]1CC2CN3CCc4c([nH]c5c([C@H]6C[C@H]7[C@H](CC)CN(C)[C@@H](Cc8c6[nH]c6ccccc86)[C@H]7C(=O)OC)c(OC)ccc45)C(C(=O)OC)(C2)C13 | 4.25 µM
Oc1ccc(N=Nc2c(O)ccc3ccccc23)cc1 | 5.36 µM
C=C(C(=O)c1ccccc1)C(CC(=O)c1ccccc1)c1ccccc1 (stereo not drawn) | 3.6 µM
COc1ccccc1C1c2ccc3ccccc3c2Oc2ncn(CCN(C)C)c(=N)c21 (stereo not drawn) | 4.22 µM
CCCc1cc(=O)[nH]c(SCC(=O)Nc2sc(C(N)=O)c(C)c2C(=O)OCCOC)n1 | 4.25 µM
CCn1cc([N+](=O)[O-])c(C(=O)Nc2nc(-c3ccc(C)cc3)c(C)s2)n1 | 5.54 µM
CC1(C)CC[C@@]2(C(=O)O)C(C1)C1=CCC3[C@@]4(C)CC[C@H](O)C(C)(C)C4CC[C@@]3(C)[C@]1(C)C[C@H]2O (stereo partly drawn) | 7.84 µM
CC(C)(C)c1nn(-c2ccccc2)c2[nH]c(=O)c(C=O)cc12 | 8.18 µM
Cc1cccc(CNc2ccc(C(CC(N)=O)NC(=O)Cc3cccc4ccccc34)cc2[N+](=O)[O-])c1 (stereo not drawn) | 13.7 µM
CN(C)CCOc1ccc(-c2c(-c3ccsc3)sc3ccccc23)cc1 | 3.04 µM
Cc1ccc(F)c(NC(=O)/C(C#N)=C(\O)c2ccc(C(C)(C)C)cc2)c1 | 8.58 µM
Cc1nn(-c2ccccc2)c(N2CCCCC2)c1/C=N/O | 1.69 µM
Cc1ccc(NC(=O)C(=Cc2ccc(C(=O)O)cc2)C(=O)Nc2ccc(C)cc2C)c(C)c1 | 3.16 µM
C=CCn1c(=O)c(C(=O)NCCc2ccccc2)c(O)c2ccccc21 | 5.77 µM
O=[N+]([O-])c1ccc(Cl)c(/C=N/n2c(C3CCCCC3)n[nH]c2=S)c1 | > 19.5 µM (inactive)
C=C(C)C1Cc2c(C)nn(-c3cccc4ccccc34)c2C1 (stereo not drawn) | 7.55 µM
Cc1ccccc1/C=N/Nc1ccnc2cc(Cl)ccc12 | 4.44 µM
Cc1ccc(C)c(-c2csc(N)c2C(=O)OC(C)C)c1 | 8.52 µM
COc1ccccc1NC(=O)c1ccc(S(=O)(=O)N2CCCC(C)C2)cc1 (stereo not drawn) | > 19.5 µM (inactive)
CCN(c1ccccc1)S(=O)(=O)c1cccc(C(=O)NCC(c2cccs2)N2CCOCC2)c1 (stereo not drawn) | > 19.5 µM (inactive)
O=C(Nc1ccccc1)Nc1ccc(O)c2ccccc12 | 3.94 µM

SMILES | AC50
CC(C)CC(=O)NC(NC(=S)Nc1sc2c(c1C#N)CCCC2)C(Cl)(Cl)Cl (stereo not drawn) | 10.6 µM
O=C(CN(c1cccc(C(F)(F)F)c1)S(=O)(=O)c1ccc(Cl)c([N+](=O)[O-])c1)NCc1ccccc1Cl | 2.6 µM
COc1cc(NC(=O)c2cc3ccccc3cc2O)c(OC)cc1Cl | 1.17 µM
CC(C)(C)c1ccc(C(=O)NCCCN2CCN(CCCNC(=O)c3ccc(C(C)(C)C)cc3)CC2)cc1 | 3.25 µM
O=S(=O)(Nc1ccc(O)c(Sc2nc3ccccc3s2)c1)c1cccc2ccccc12 | 5.83 µM
Cc1ccc(/C=N/NC(=O)c2ccc3c(c2)OCCO3)s1 | 2.49 µM
N#Cc1c(N)nc2c(c1-c1cccc(O)c1)CCCCCC2 | 16.3 µM
c1ccc(CNc2c(-c3cccc(SC4CCCCC4)c3)nc3ccccn23)cc1 | 3.6 µM
O=C(CSC1=NNC(c2ccccn2)S1)Nc1ccc(C(F)(F)F)cc1 (stereo not drawn) | 4.27 µM
O=C(/C=C/c1ccc2c(c1)OCO2)Nc1nc(-c2ccccc2)cs1 | 0.781 µM
Cc1ccc(CCC(=O)Nc2ncc(Cc3cc(Cl)ccc3Cl)s2)o1 | 13.6 µM
NC(=O)CC(NC(=O)Cc1ccc(Br)cc1)c1ccc(NC2CCCCCC2)c([N+](=O)[O-])c1 (stereo not drawn) | 4.88 µM
Cc1ccc(-c2nc(CS(=O)CC(=O)NCc3ccc4c(c3)OCO4)c(C)o2)cc1 (stereo not drawn) | > 19.5 µM (inactive)
C=C(Br)Cn1c(CCCC)nc2ccccc21 | 0.645 µM
COc1ccc(C(=O)C2CCCN(Cc3cc(C)c(O)c(C)c3)C2)c(OC)c1 (stereo not drawn) | 4.9 µM
NCC(c1ccc(Cl)cc1Cl)c1c[nH]c2ccccc12 (stereo not drawn) | 11.9 µM
CSc1ccc2c(c1)C(N1CCN(C)CC1)Cc1ccccc1S2 (stereo not drawn) | 15.1 µM
Cc1ccc(NC(=O)c2nc(S(=O)(=O)Cc3ccccc3C)ncc2Cl)cc1C | 7.64 µM
CC(C)=CCc1c(O)cc2c(c1O)C(=O)CC(c1ccc(O)cc1)O2 (stereo not drawn) | 3.74 µM
COC(=O)C1=C(c2cccc(C#N)c2)C[C@@H]2CC[C@H]1N2C(=O)NC1Cc2ccccc2C1 | > 19.5 µM (inactive)
COc1ccc2sc(-c3ccc(N(C)C)cc3)c(-c3ccc4cc[nH]c4c3)c2c1 | 16.5 µM
COc1ccc(-c2sc3ccccc3c2C#CCCO)cc1 | 6.5 µM
CCOC(=O)[C@@H]1[C@H]2COc3cc(OC)ccc3[C@H]2N2C(=O)N(c3ccc(C(F)(F)F)cc3)C(=O)[C@]12C | 4.62 µM
O=C(NNC1=C(C(=O)C(F)(F)F)CCC1)c1ccc(Cl)cc1 | 4.25 µM
CCOc1cc(CNCCO)cc(Br)c1OCc1ccc(Cl)cc1Cl | 6.68 µM
CCN(CC)S(=O)(=O)c1ccc(NC(=O)Nc2cccc(C(F)(F)F)c2)cc1 | 3.54 µM

SMILES | AC50
CC(C)COc1ccc(-c2nn(-c3ccccc3)cc2/C=C2/SC(=S)N(CC(=O)O)C2=O)cc1 | 4.51 µM
O=C(/C(=C/O)N=Nc1ccc(Cl)cc1)c1ccncc1 | 6.53 µM
CC(=O)Oc1ccc2c(=O)c(-c3nc4ccccc4s3)coc2c1 | 9.34 µM
C=C(CC[C@@H](O)C(C)(C)O)[C@H]1CC[C@]2(C)[C@@H]1CCC1[C@@]3(C)CC[C@H](O)C(C)(C)C3CC[C@]12C (stereo partly drawn) | 1.13 µM
CN1CCN(C2Cc3ccccc3Sc3cc(C(F)(F)F)ccc32)CC1 (stereo not drawn) | 6.9 µM
N#C/C(=C\c1c[nH]c2ccc(Br)cc12)c1ccccn1 | 10.3 µM
COc1ccccc1-c1sc2cc3c(cc2c1C#Cc1cncn1C)OCO3 | 5.73 µM
CN(C)CCNc1nc2sc3c(c2c(=O)n1-c1ccccc1)CCCCC3 | 3.22 µM
Oc1ccccc1N1CCN(c2ncnc3sc(-c4ccccc4)cc23)CC1 | 3.53 µM
O=C(Nc1ccc(Nc2ccccc2)cc1)c1cccc(F)c1 | 17.6 µM
C=CCC[C@H](Cc1ccc(F)cc1)C(=O)OC[C@@H](Cc1c[nH]c2ccccc12)NC(=O)[C@H](CC=C)CC(=O)N(CCO)Cc1ccccc1 | 4.1 µM
COc1nc(N2CCCCCC2)nc(N2CCCCCC2)n1 | 7.43 µM
COc1ccc(CCn2c(C3CCCCC3)nc3c(c(=O)c4ccccc4n3C)c2=O)cc1 | 5.17 µM
Cc1nc2c3cc(F)ccc3n(Cc3ccccc3)c2s1 | 0.825 µM
CC(C)Oc1cccc(C(=O)NC(=S)Nc2ccccc2N2CCOCC2)c1 | 13.9 µM
O=[N+]([O-])c1ccc(Cl)c([N+](=O)[O-])c1 | 5.62 µM
Cc1cc(N/N=C/c2ccccc2Cl)nc(NCc2ccccc2)n1 | 4.04 µM
Cc1[nH]nc2nc(SCC(=O)NC3CCCCC3)n(-c3ccc(Br)cc3)c(=N)c12 | 14.4 µM
CCOC(=O)c1ccc(-n2[nH]c(-c3ccccc3)cc2=O)cc1 | 7.96 µM
CC1(c2ccc(O)cc2)NC(=O)N(c2ccccc2)N1 (stereo not drawn) | 8.69 µM
Cc1cc(N2CCN(C)CC2)nc2ccc(NC(=S)N3CCN(c4ccc(F)cc4)CC3)cc12 | 5.94 µM
Cc1ccnc(NC(=O)CSc2cc(=O)n(C)c3ccccc23)c1 | 8.16 µM
CCN(CC)c1ccc(S(=O)(=O)Nc2cc(Cl)ccc2Cl)cc1NC(=S)NC(=O)C1CCCC1 | 2.06 µM
Cn1c(-c2ccccc2)cnc1NCc1ccc(-c2ccccc2)cc1 | 0.683 µM
O=[N+]([O-])/C=C/c1cn(Cc2ccc(Cl)cc2)c2ccccc12 | 2.2 µM
